Counter-ions that a name gives are not always drawn.
Assays:
β-adreno-receptor = test: Inhibition of histamine-induced bronchoconstriction (bronchial resistance, Konzett-Rossler method) in anesthetized dogs; β-adreno-receptor stimulating activity; format: in vivo, dog (male hybrid adult dogs); details: femoral vein, 1 minute before histamine 10 mg/kg
Description: The stimulating activity of the compounds of this invention on β-adreno-receptor was determined as follows:
Male hybrid adult dogs, weighing 10 to 15 kg were anesthesized with 30 mg/kg of body weight of sodium pentobarbital administered intravenously. Each of the anesthesized dogs were secured on its back and a cannula was inserted into the trachea. Artificial respiration was conducted using a device according to the Konzett-Rossler method (Konzett H. & Rossler R., "Versuchsanordnug zu Untersuchungen an der Bronchial Moskolatur", Arch. Exp. Path., Pharmack, 195, 71 - 74, 27 - 40 (1940)). The volume of the overflowing air at the time of inhalation was measured through a pneumotachometer to determine the bronchial resistance and the values obtained were recorded on a polygraph.
In the above experiment, histamine was employed as a bronchoconstrictor at a dosage level of 10 mg/kg of body weight, and an aqueous solution containing each of the test compounds and controls shown in Table 1 below was then administered to each of the anesthesized dogs through the femoral vein at various dosage levels shown in Table 1 below 1 minute before the administration of the histamine. Sodium pentobarbital was infused during the experiment at a dosage level of 4 mg/kg of body weight/hr using an automatic injector in order to inhibit spontaneous respiration and to keep the anesthetic condition constant over the test period.

in vivo = details: rat, male rats (dd strain), fasted 12 hours

CC(C)NCC(O)c1cc(O)cc(O)c1 (stereo not drawn) [Metaproterenol Sulfate (Arotec)]
Bronchial Resistance (%) (β-adreno-receptor; dose 0.01 ug/Kg): 0%
Bronchial Resistance (%) (β-adreno-receptor; dose 0.03 ug/Kg): 0%
Bronchial Resistance (%) (β-adreno-receptor; dose 0.1 ug/Kg): 2.7%
Bronchial Resistance (%) (β-adreno-receptor; dose 0.3 ug/Kg): 11.1%
Bronchial Resistance (%) (β-adreno-receptor; dose 1.0 ug/Kg): 27.5%
Bronchial Resistance (%) (β-adreno-receptor; dose 3.0 ug/Kg): 50.0%
Bronchial Resistance (%) (β-adreno-receptor; dose 10 ug/Kg): 88.3%
Bronchial Resistance (%) (β-adreno-receptor; dose 30 ug/Kg): 100%

CC(C)NCC(O)c1ccc(O)c2ncccc12 (stereo not drawn) [Quinterenol]
Bronchial Resistance (%) (β-adreno-receptor; dose 0.01 ug/Kg): 0%
Bronchial Resistance (%) (β-adreno-receptor; dose 0.03 ug/Kg): 0%
Bronchial Resistance (%) (β-adreno-receptor; dose 0.1 ug/Kg): 0%
Bronchial Resistance (%) (β-adreno-receptor; dose 0.3 ug/Kg): 0%
Bronchial Resistance (%) (β-adreno-receptor; dose 1.0 ug/Kg): 0%
Bronchial Resistance (%) (β-adreno-receptor; dose 3.0 ug/Kg): 0%
Bronchial Resistance (%) (β-adreno-receptor; dose 10 ug/Kg): 0%
Bronchial Resistance (%) (β-adreno-receptor; dose 30 ug/Kg): 7.6%
Bronchial Resistance (%) (β-adreno-receptor; dose 100 ug/Kg): 15.3%

CC(C)(C)NCC(O)c1ccc(O)c(CO)c1 (stereo not drawn) [Salbutamol]
Bronchial Resistance (%) (β-adreno-receptor; dose 0.01 ug/Kg): 0%
Bronchial Resistance (%) (β-adreno-receptor; dose 0.03 ug/Kg): 0%
Bronchial Resistance (%) (β-adreno-receptor; dose 0.1 ug/Kg): 16.6%
Bronchial Resistance (%) (β-adreno-receptor; dose 0.3 ug/Kg): 33.3%
Bronchial Resistance (%) (β-adreno-receptor; dose 1.0 ug/Kg): 66.6%
Bronchial Resistance (%) (β-adreno-receptor; dose 3.0 ug/Kg): 100%

CCC(NC(C)C)C(O)c1ccc(O)c2c1CCC(=O)N2 (stereo not drawn) [5-(1-Hydroxy-2-isopropylamino)butyl-8-hydroxy-3,4-dihydrocarbostyril]
LD50 (in vivo; iv, I.v.): 81.5 mg/kg
LD50 (in vivo; po): 830 mg/kg

CC(C)NCC(O)c1ccc(O)c(O)c1 (stereo not drawn) [Isoproterenol]
Bronchial Resistance (%) (β-adreno-receptor; dose 0.03 ug/Kg): 16.6%
Bronchial Resistance (%) (β-adreno-receptor; dose 1.0 ug/Kg): 100%

Reference: patent US3994901A, “5-[1-Hydroxy-2-(s ubstituted-amino)]alkyl-8-hydroxy-3,4-dihydrocarbostyril derivatives” (Otsuka Pharmaceutical Company Limited, priority 1974, dated 1976)
